In patent publication US8158764B2 (priority 2006, dated 2012):
Values joined by “and” are separate entries in the source; they are usually repeats but may differ in a detail not shown here. Identical values can stand only once.

Tests used:
human μ receptors = target: T1, human μ receptors (Homo sapiens, UniProt P35372); experiment: biochemical; format: binding
T1 construct: expressed in transfected cells; host or cells: HEK-293

κ receptor [1] = target: T2, κ receptor (Oryctolagus cuniculus, UniProt G1SJ19); format: biochemical, rabbit
T2 construct: using prostatic segments of rabbits' deferens vas; from tissue; host or cells: rabbit vas deferens (prostatic segments)
T2 sequence (G1SJ19 1-383): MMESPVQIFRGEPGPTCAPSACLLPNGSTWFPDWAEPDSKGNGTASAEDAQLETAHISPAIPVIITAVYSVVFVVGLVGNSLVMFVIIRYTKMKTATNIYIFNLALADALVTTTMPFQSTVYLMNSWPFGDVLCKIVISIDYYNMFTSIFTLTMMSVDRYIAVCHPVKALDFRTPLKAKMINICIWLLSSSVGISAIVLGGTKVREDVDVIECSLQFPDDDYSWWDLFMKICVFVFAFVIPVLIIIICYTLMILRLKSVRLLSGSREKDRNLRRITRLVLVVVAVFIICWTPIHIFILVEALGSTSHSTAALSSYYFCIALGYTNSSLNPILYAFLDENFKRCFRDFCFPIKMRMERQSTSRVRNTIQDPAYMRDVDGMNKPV

[2] = Tail flick test (analgesic activity); format: in vivo, mouse; set-up: AUC, tail flick test: unit not given here; conditions: for duration of the analgesic activity compared with morphine: in words, tail flick and hot plate tests; for ED50 / Max Effect (time), tail flick test: mouse, intravenous
Description: The “Tail flick” test (test of D'Amour & Smith, 1941, Pharmacol Exp Ther; 72: 74-79) consists in placing the tail of a mouse, after administration of a product, in front of an infrared source in order to produce a nociceptive stimulus (a surface temperature of 55° C.). The reaction time (RT) of the mouse (latency between the start of the light beam and the moment the mouse withdraws its tail) was measured in duplicate at 8 times spread from […] after administration of the product. A maximal 10 second-period has been chosen as the maximal reaction time in order to avoid any tissue damage for the animal.
Products were intravenously-administered at doses comprised between 0.5 and 8 mg/kg (8 mice per group).
Two measures of reaction time were realized before administration of the product for each mouse so as to establish a base line.
The MPE % represents the percentage of possible maximal effect and corresponds to the following formula: […]

κ receptor [3] = target: T2, κ receptor; experiment: Antagonist activity on κ receptor, electrically stimulated rabbit vas deferens; format: biochemical
Description: The agonist/antagonist activity on K receptors of compounds according to the invention was estimated by using prostatic segments of rabbits' deferens vas, stretched and stimulated by an electric current of 0.1 Hz during 1 msec.
In order to test an antagonist activity, a response control (peak of contraction of the tissue) was obtained by exposing tissues to a high concentration (0.1 μM) in specific agonist U-69593.
Tissues were then exposed to growing concentrations of the compound according to the invention or to the specific agonist. The various concentrations were cumulated and each concentration was maintained in contact with the tissue until a stable response was obtained or up to […].
An antagonist response was observed when the amplitude of peaks of contractions provoked by electric stimulation was similar to the one observed with the nor-BNI.
The measured parameter was a maximal change of amplitude of the peaks of contractions provoked by electric stimulation with various concentrations of the compound.

[4] = Hot plate test (analgesic activity); format: in vivo; conditions: mouse, intravenous
[5] = Intestinal transit in mice
κ receptors = target: T3, κ receptors (Cavia porcellus, UniProt P41144); experiment: Affinity to κ receptors, [3H]U-69593 binding on cerebellum homogenates; set-up: species or system guinea-pigs; conditions: for Ki: guinea-pig cerebellum, 0.7 nM [3H]U-69593, read-out: Ki (nM) κ Receptor
T3 construct: homogenates of guinea-pigs cerebellum (250 μg of protein); from tissue; host or cells: guinea-pig cerebellum
T3 sequence (P41144 whole entry): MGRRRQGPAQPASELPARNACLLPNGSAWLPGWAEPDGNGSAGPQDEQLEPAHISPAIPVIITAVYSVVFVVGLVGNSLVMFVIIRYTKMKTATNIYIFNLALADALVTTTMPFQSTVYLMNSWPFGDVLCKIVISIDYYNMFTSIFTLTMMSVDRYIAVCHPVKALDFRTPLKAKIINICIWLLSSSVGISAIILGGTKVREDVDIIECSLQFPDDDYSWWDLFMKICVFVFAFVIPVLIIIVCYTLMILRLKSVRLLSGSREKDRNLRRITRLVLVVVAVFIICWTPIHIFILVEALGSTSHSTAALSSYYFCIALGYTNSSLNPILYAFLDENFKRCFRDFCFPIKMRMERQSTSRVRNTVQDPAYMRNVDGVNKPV
Description: (§1) The non specific binding was determined in the presence of 10 μM of naltrexone. After incubation, samples were rapidly filtered through glass fibers (GF/B, Packard), previously incubated with 0.3% of polyethyleneimine and rinsed several times with 50 mM of cold Tris-HCl using a “96-sample cell harvester” (Unifilter, Packard). Filters were afterwards dried and the radioactivity was counted.

δ receptors = target: T4, δ receptors (Homo sapiens, UniProt P41143); experiment: Affinity to δ receptors, [3H]DADLE binding on cell membrane homogenates (CHO cells)
T4 construct: expressed in transfected cells; host or cells: CHO
T4 sequence (P41143 whole entry): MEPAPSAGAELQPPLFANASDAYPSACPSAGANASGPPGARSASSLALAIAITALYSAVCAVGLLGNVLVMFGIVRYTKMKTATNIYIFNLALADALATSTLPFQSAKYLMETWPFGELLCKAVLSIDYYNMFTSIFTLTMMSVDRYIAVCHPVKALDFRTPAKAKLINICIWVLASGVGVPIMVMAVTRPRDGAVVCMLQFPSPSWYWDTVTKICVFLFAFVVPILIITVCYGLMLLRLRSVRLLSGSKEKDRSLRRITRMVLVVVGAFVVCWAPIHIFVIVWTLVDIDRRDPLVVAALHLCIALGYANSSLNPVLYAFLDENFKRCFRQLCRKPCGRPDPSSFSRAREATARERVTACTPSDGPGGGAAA
Description: as §1

[6] = Activity and toxicity of the 3-methoxy derivative (test not specified); conditions: in words

T1 sequence (P35372 whole entry): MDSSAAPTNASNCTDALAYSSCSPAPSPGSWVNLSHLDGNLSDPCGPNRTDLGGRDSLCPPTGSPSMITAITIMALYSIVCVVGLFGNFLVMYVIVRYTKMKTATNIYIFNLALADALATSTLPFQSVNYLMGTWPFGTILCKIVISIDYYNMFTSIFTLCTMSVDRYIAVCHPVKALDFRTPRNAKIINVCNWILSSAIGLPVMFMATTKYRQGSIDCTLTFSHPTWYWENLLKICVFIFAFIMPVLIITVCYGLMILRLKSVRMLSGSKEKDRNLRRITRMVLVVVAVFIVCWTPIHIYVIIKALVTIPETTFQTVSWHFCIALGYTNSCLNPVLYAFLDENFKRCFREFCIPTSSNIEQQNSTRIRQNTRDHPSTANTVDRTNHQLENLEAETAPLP

Row | SMILES | Ki (human μ receptors) | AUC, tail flick test ([2]; dose 1 mg/kg iv) | AUC, tail flick test ([2]; dose 2 mg/kg iv) | AUC, tail flick test ([2]; dose 4 mg/kg iv) | AUC, tail flick test ([2]; dose 8 mg/kg iv) | duration of the analgesic activity compared with morphine [2] | ED50 [2] | Max Effect (time), tail flick test [2] | ED50 [4] | Effet max (time), hot plate test [4] | Ki (κ receptors) | also measured
1 | CCOc1ccc2c3c1OC1C(OC4OC(C(=O)NCCSSCCNC(=O)C5OC(OC6C=CC7C8Cc9ccc(OCC)c%10c9C7(CCN8C)C6O%10)C(O)C(O)C5O)C(O)C(O)C4O)C=CC4C(C2)N(C)CCC341 (centres unmarked) [M3Et-6G-cya-cya-M3Et-6G] | 0.014 µM | 1233.75 | 4824.51 | 5915.16 | 5817.46 | much longer | 1.32 mg/kg | 120 min | 1.35 mg/kg | 120 min | 25 nM | agonist activity: response in % of the response control at U-69593 (κ receptor [1]): 0% and −4% and −3%; AUC, tail flick test ([2]; dose 0.5 mg/kg iv): 617.79; duration of maximum analgesic activity ([2]; injected at two-fold ED50, no supplementary dose): at least 6 hours; antagonist activity: response in % of the response control at U-69593 (0.1 μM) (κ receptor [3]; compound 0.03 μM): 100%; antagonist activity: response in % of the response control at U-69593 (0.1 μM) (κ receptor [3]; compound 0.3 μM): 100%; antagonist activity: response in % of the response control at U-69593 (0.1 μM) (κ receptor [3]; compound 3 μM): 92%; antagonist activity: response in % of the response control at U-69593 (0.1 μM) (κ receptor [3]; compound 30 μM): 71%; agonist/antagonist behaviour on κ receptor (κ receptor [3]; in words): behaves as a κ receptor antagonist; transit inhibition ([5]; at the maximal analgesic effect after iv injection at ED50): about 90%; analgesia when transit speed becomes normal ([5]; between 10 and 12 hours after injection): 50%; effect on transit while analgesic activity is maintained at maximum ([5]; in words): transit only slows down; improvement of affinity for κ receptors (factor) (κ receptors; compared with morphine): 6; Ki (δ receptors): > 1 µM
2 | CCOc1ccc2c3c1OC1C(OC4OC(C(=O)NCCS)C(O)C(O)C4O)C=CC4C(C2)N(C)CCC341 (centres unmarked) [Compound M3Et-6G-cya] | 0.013 µM | 1047.85 | 2538.93 | 5012.90 | 6059.22 | much longer | 2.04 mg/kg | 120 min | 2.75 mg/kg | 120 min | 220 nM | –
3 | Oc1ccc2c3c1O[C@H]1c4[nH]c5c(c4C[C@@]4(O)[C@@H](C2)N(CC2CC2)CC[C@]314)C[C@@]1(O)[C@H]2Cc3ccc(O)c4c3[C@@]1(CCN2CC1CC1)[C@H]5O4 [nor-BNI, nor-binaltorphimine, reference compound] | – | – | – | – | – | – | – | – | – | – | – | antagonist activity: response in % of the response control at U-69593 (0.1 μM) (κ receptor [3]; compound 0.1 nM): 80%; antagonist activity: response in % of the response control at U-69593 (0.1 μM) (κ receptor [3]; compound 0.3 nM): 55%; antagonist activity: response in % of the response control at U-69593 (0.1 μM) (κ receptor [3]; compound 1 nM): −1%
4 | COc1ccc2c3c1OC1C(OC4OC(C(=O)NCCS)C(O)C(O)C4O)C=CC4C(C2)N(C)CCC341 (centres unmarked) [Compound C6G-cya] | 0.011 µM | – | – | – | – | – | – | – | – | – | 100 nM | activity of the 3-methoxy substituted compound [6]: inactive; toxicity of the 3-methoxy substituted compound [6]: toxic
5 | CCOc1ccc2c3c1O[C@H]1[C@@H](O[C@@H]4O[C@H](C(=O)NCCSSCCC(=O)Nc5cccc6c7c([nH]c56)[C@@H]5Oc6c(O)ccc8c6[C@@]56CCN(CC5CC5)[C@H](C8)[C@]6(O)C7)[C@@H](O)[C@H](O)[C@H]4O)C=CC4[C@@H](C2)N(C)CC[C@@]341 (some centres unmarked) [M3Et-6G-cya-3MP-NTI] | – | – | 2576 | 4410 | 5733 | – | 2.9 mg/kg | 120 min | – | – | – | –
